Results on 50 compounds are retold here after patent publication US20050042213A1, “Methods and pharmaceutical compositions for modulating heparanase activation and uses thereof” (InSight Biopharmaceuticals Ltd., priority 2003, published 2005).

Where a SMILES comes first, the peptide text is derived from it. [ ]: non-standard residue; d: D form. The star is where a group is joined. AMC = Cc1cc(=O)oc2cc(N*)ccc12; Nle = CCCC[CH](N)C(=O)O; Cbz = O=C(OCc1ccccc1)*; NHOH = ON*

One assay has as its target T1, pro-heparanase (H60) (Homo sapiens, UniProt Q9Y251, K307R).
T1 sequence (Q9Y251 36-543 K307R): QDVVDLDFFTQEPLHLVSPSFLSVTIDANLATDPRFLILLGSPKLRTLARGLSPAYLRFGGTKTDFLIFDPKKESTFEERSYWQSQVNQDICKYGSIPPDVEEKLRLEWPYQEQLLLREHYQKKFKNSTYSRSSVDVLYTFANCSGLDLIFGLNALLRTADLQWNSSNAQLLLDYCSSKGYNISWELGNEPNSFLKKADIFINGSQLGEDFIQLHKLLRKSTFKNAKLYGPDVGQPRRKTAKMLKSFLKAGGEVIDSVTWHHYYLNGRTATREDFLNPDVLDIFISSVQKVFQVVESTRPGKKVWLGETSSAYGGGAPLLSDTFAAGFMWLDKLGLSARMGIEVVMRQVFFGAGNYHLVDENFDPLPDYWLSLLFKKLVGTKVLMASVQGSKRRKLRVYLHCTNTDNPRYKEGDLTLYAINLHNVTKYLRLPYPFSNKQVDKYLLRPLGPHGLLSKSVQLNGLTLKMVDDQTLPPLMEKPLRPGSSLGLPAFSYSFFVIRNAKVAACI
Kind of assay: Pro-heparanase activation in a cell-based assay (293 cells, DMB assay). The conditions noted are these: inhibition of pro-heparanase activation.

A short description of assay [1]: Heparin binding of compounds (heparin sepharose CL-6B beads). To be noted: compound at 5 uM. Here is the method: Heparin binding—5 μM of the selected compound was prepared in a solution of PBS pH 7.2 with 0.05% Tween and 5% DMSO. […] Excess water was discarded by filtration using a Multiscreen vacuum manifold (Millipore, Cat No. MAVM 096 00). 200 μl of each compound tested was transferred to three wells of the filter plate—one empty well, one with sepharose CL-6B and one with heparin sepharose CL-6B. Plates were rotated for 2 hrs at 37° C. followed by filtration to a new 96 well clear plate, using a Multiscreen vacuum manifold. The absorbance spectrum of the filtrate in each well was determined using a VERSAmax plate reader (Molecular devices). Percent of heparin binding was calculated from the binding to heparin sepharose CL-6B as compared to the binding of the compound to the control sepharose CL-6B beads.

For another assay, the system named is 293 cell extract. Kind of assay: Cleavage of Z-Pro-Lys-Lys-Glu-AMC (Peptide 1) by 293 cell extract and its inhibition by protease inhibitors. The assay is classed as biochemical, human. Further details: % Inhibition: concentration or dose not given beside the values. To be noted: for % Inhibition: inhibition of Z-Pro-Lys-Lys-Glu-AMC cleavage by 293 cell extract. The procedure: Following a 20 minutes incubation at 37° C., fluorescence released due to proteolytic activity was determined using a BMG POLARstar™ Galaxy fluorometer: excitation at 390 nm and emission at 460 nm.

Where [2] appears, read: Table 11, heparin-binding compounds.
Where [3] appears, read: Table 12, known inhibitors of cathepsin B activity.
[4] abbreviates: Table 7, 5-(5-Phenyl-furan-2-ylmethylene)rhodanine analogs.

With `Cc1c(N2C(=O)C(=Cc3ccco3)SC2=S)c(=O)n(-c2ccccc2)n1C` [Compound 76], the IC50 (in general, the concentration at which inhibition is half-maximal) against pro-heparanase (H60) (Table 8, 5-(Heteroaryl-2-ylmethylene)rhodanine analogs) was determined as 52 µM.
Turning to `CCN1C=C/C(=C/C=c2/s/c(=C\c3sc(-c4ccccc4)c(-c4ccccc4)[n+]3CC)n(CC)c2=O)c2ccccc21` [Compound 115], the IC50 on pro-heparanase (H60) (setting [2]) was 12 µM. In addition, the “Binding to heparin (5 uM)” value in assay [1] was 66%.
`CCCCC(C=O)NC(=O)C(CC(C)C)NC(=O)C(CC(C)C)NC(C)=O` (stereo not drawn) [Compound 123, reference compound] (Ac-Leu-Leu-[Nle]-aldehyde; configuration not given here) yielded an IC50 on pro-heparanase (H60) (setting [3]) of 7.4 µM.
Compound `CN1\C(=C/C=C/C=C/C=C/C2=[N+](C)c3ccccc3C2(C)C)C(C)(C)c2ccccc21` [Compound 122] yielded an IC50 at pro-heparanase (H60) (setting [2]) of 16 µM. Also, the “Binding to heparin (5 uM)” value in assay [1] was found to be 65%.
At pro-heparanase (H60) (setting [2]), `CC[n+]1ccc(/C=C/C=C2\Sc3ccc4ccccc4c3N2C)c2ccccc21` [Compound 121] yielded an IC50 of 5.27 µM. In addition, in assay [1], the “Binding to heparin (5 uM)” value came out at 47%.
`CC(=O)N[C@@H](CC(C)C)C(=O)N[C@@H](CC(C)C)C(=O)N[C@H](C=O)CCCNC(=N)N` [Leupeptin]: in the assay on 293 cell extract, the % Inhibition (commonly the percentage by which the read-out fell short of the control) was determined as 97%.
Regarding `Cc1ccc(-c2ccc(C=C3SC(S)=NC3=O)o2)cc1Cl` [Compound 37], on pro-heparanase (H60) (setting [4]), the IC50 amounted to 18 µM.
On the same count and under the same terms, the result for `O=C(O)CN1C(=O)C(=Cc2ccc(-c3ccccc3Cl)o2)SC1=S` [Compound 14] reads 32 µM.
As for `O=C(O)[C@@H](Cc1ccccc1)NS(=O)(=O)c1ccc(-c2ccccc2)cc1` [MMP 2,9 inhibitor], the “% Inhibition” value in the assay with 293 cell extract worked out at 0%.
For `CC(C)CC(NC(=O)C1CCCN1C(=O)OCc1ccccc1)C(=O)NCC(=O)NO` (stereo not drawn) [Z-Pro-Leu-Gly hydroxamate] (Cbz-Pro-Leu-Gly-{NHOH}; configuration not given here), the “% Inhibition” value with 293 cell extract was 0%.
At pro-heparanase (H60) (setting [3]), `CCCNC(=O)C1OC1C(=O)NC(C(=O)N1CCCC1C(=O)OC)C(C)CC` (stereo not drawn) [Compound 125, reference compound] had an IC50 of 23 µM.
Turning to `O=C(O)CN1C(=O)C(=Cc2ccc(-c3ccc(Cl)cc3)o2)SC1=S` [Compound 16], the IC50 on pro-heparanase (H60) (setting [4]) stood at 3.8 µM.
Take `O=C[C@H](Cc1ccc(O)cc1)NC(=O)[C@H](Cc1ccccc1)NC(=O)OCc1ccccc1` [Cathepsin L inhibitor II] (Cbz-Phe-Tyr-aldehyde): the “% Inhibition” value in the assay on 293 cell extract worked out at 97%.
For “Z-Glu-His-Tyr-Gln-AMC (Cbz-EHYQ-{AMC}; SMILES Cc1cc(=O)oc2cc(NC(=O)[C@H](CCC(N)=O)NC(=O)[C@H](Cc3ccc(O)cc3)NC(=O)[C@H](Cc3c[nH]cn3)NC(=O)[C@H](CCC(=O)O)NC(=O)OCc3ccccc3)ccc12) [Peptide 2]”, in the assay on 293 cell extract (different pHs, pH range 4.5-7.5), the “cleavage by 293 cell extract” value is on record as “not cleaved”.
For the compound `O=C(O)CCN1C(=O)C(=Cc2ccc(-c3ccccc3)o2)SC1=S` [Compound 7], the IC50 on pro-heparanase (H60) (setting [4]) was determined as 2.3 µM.
In the case of `CSCCC(C=O)NC(=O)C(CC(C)C)NC(=O)C(CC(C)C)NC(C)=O` (stereo not drawn) [Compound 124, reference compound] (Ac-Leu-Leu-Met-aldehyde; configuration not given here), the 50% inhibitory concentration (IC50) at pro-heparanase (H60) (setting [3]) turned out to be 10 µM.
Turning to `CSCC[C@@H](C=O)NC(=O)[C@H](CC(C)C)NC(=O)[C@H](CC(C)C)NC(C)=O` [Calpain inhibitor II, N-Acetyl-Leu-Leu-Met-CHO] (Ac-Leu-Leu-Met-aldehyde), the “% Inhibition” value in the assay with 293 cell extract was 98%.
For the compound `CN(C)c1ccc(/C=C/C2=[N+](C)c3ccccc3C2(C)C)cc1` [Compound 116], the IC50 on pro-heparanase (H60) (setting [2]) is 3 µM. For the same compound, the “Binding to heparin (5 uM)” value in assay [1] was 71%.
On the same counts, the results for `CCC(/C=C1\Sc2ccc3ccccc3c2N1CC)=C\c1sc2ccc(-c3ccccc3)cc2[n+]1CC` [Compound 120] are 3.5 µM and 61%.
Take `C=CCn1c(=O)/c(=C\C=C2/Nc3c(sc(C)c3C)N2CC)s/c1=C\c1sc(-c2ccccc2)c(-c2ccccc2)[n+]1CC` [Compound 113]: the IC50 on pro-heparanase (H60) (setting [2]) amounted to 2.61 µM. Also, the “Binding to heparin (5 uM)” value in assay [1] is given as 73%.
At pro-heparanase (H60) (setting [3]), `CC(=O)NC(CC(C)C)C(=O)NC(CC(C)C)C(=O)NC(C=O)CCCNC(=N)N` (stereo not drawn) [Compound 126, reference compound] gave an IC50 of 26 µM.
On pro-heparanase (H60) (setting [4]), `O=C(O)CN1C(=O)C(=Cc2ccc(-c3ccc(Cl)cc3Cl)o2)SC1=S` [Compound 18] displayed an IC50 of 18 µM.
Take `O=C(O)CN1C(=O)C(=Cc2ccc(-c3ccccc3[N+](=O)[O-])o2)SC1=S` [Compound 24]: the IC50 against pro-heparanase (H60) (setting [4]) came out at 37 µM.
Consider `CC(C)C[C@H](NC(=O)[C@H]1O[C@@H]1C(=O)O)C(=O)NCCCCN=C(N)N` [Compound E-64], for which the “% Inhibition” value with 293 cell extract was 93%.
`O=C(O)c1ccc(-c2ccc(C=C3SC(=S)N(c4ccccc4)C3=O)o2)cc1` [Compound 48]: 0.95 µM corresponded to half-maximal inhibition against pro-heparanase (H60) (setting [4]) (IC50).
Same read-out and setting: the result for `O=C(O)CN1C(=O)C(=Cc2ccc(-c3cccc(Cl)c3)o2)SC1=S` [Compound 15] reads 2 µM.
In turn, `CCN1/C(=C/C=C/c2sc3ccc(OC)cc3[n+]2CC)Sc2ccc3ccccc3c21` [Compound 119] yielded an IC50 on pro-heparanase (H60) (setting [2]) of 1.74 µM. The “Binding to heparin (5 uM)” value in assay [1] is on record as 51%.
As for `O=C1NC(=S)SC1=Cc1ccc(-c2ccc(Br)cc2)o1` [Compound 36], on pro-heparanase (H60) (setting [4]), the IC50 came out at 13 µM.
On the same count and under the same terms, the result for `O=C(O)CN1C(=O)C(=Cc2ccc(-c3cccc(C(F)(F)F)c3)o2)SC1=S` [Compound 26] reads 7 µM; that for `O=C(O)CCN1C(=O)C(=Cc2ccc(-c3ccc([N+](=O)[O-])cc3)o2)SC1=S` [Compound 11], 2.8 µM; that for `O=C(O)CN1C(=O)C(=Cc2ccc(-c3ccc([N+](=O)[O-])cc3Cl)o2)SC1=S` [Compound 20], 29 µM.
`CC[n+]1c(/C=C/Nc2ccccc2)sc2c3ccccc3sc21` [Compound 118] registered an IC50 on pro-heparanase (H60) (setting [2]) of 6 µM. Further, the “Binding to heparin (5 uM)” value in assay [1] is 61%.
The compound `O=C(O)c1cccc(-c2ccc(C=C3SC(=S)N(c4ccccc4)C3=O)o2)c1` [Compound 47] returned an IC50 against pro-heparanase (H60) (setting [4]) of 5 µM.
Turning to `O=C1C(=Cc2ccc(-c3cccc(Cl)c3Cl)o2)SC(=S)N1c1ccccc1` [Compound 1013-0169], at pro-heparanase (H60) (setting [4]), half-maximal inhibition (IC50) required 129 µM.
Regarding `O=C(O)CN1C(=O)C(=Cc2ccc(-c3cc(Cl)ccc3Cl)o2)SC1=S` [Compound 17], on pro-heparanase (H60) (setting [4]), it took 20 µM to reach half-maximal inhibition (IC50).
Still for that read-out and setting: then `O=C(O)CN1C(=O)C(=Cc2ccc(-c3ccc(I)cc3)o2)SC1=S` [Compound 22], with 27 µM; and `O=C(O)c1ccc(-c2ccc(C=C3SC(=S)N(c4cccc([N+](=O)[O-])c4)C3=O)o2)cc1` [Compound 56], with 13 µM.
At pro-heparanase (H60) (setting [4]), `O=C(O)CN1C(=O)C(=Cc2ccc(-c3cccc(C(=O)O)c3)o2)SC1=S` [Compound 27] gave an IC50 of 46 µM.
On pro-heparanase (H60) (setting [2]), `CN(C)c1ccc(/C=C/c2sc3ccc4ccccc4c3[n+]2C)cc1` [Compound 117] returned an IC50 of 9 µM. Further, the “Binding to heparin (5 uM)” value in assay [1] worked out at 66%.
Turning to `Cc1cc([N+](=O)[O-])ccc1-c1ccc(C=C2SC(=S)N(CC(=O)O)C2=O)o1` [Compound 25], on pro-heparanase (H60) (setting [4]), half-maximal inhibition (IC50) required 21 µM.
Regarding `C=CCn1c(=O)/c(=C\C=C2\C=CN(CC)c3ccccc32)s/c1=C\c1sc(-c2ccccc2)c(-c2ccccc2)[n+]1CC` [Compound 114], at pro-heparanase (H60) (setting [2]), the IC50 turned out to be 7 µM. For the same compound, in assay [1], the “Binding to heparin (5 uM)” value was found to be 48%.
On to `O=C(O)CCN1C(=O)C(=Cc2ccc(-c3ccccc3Cl)o2)SC1=S` [Compound 8], for which, on pro-heparanase (H60) (setting [4]), inhibition was half-maximal at 6 µM (IC50).
On the same count and under the same terms, the result for `O=C(O)CCCCCN1C(=O)C(=Cc2ccc(-c3ccc(Cl)cc3)o2)SC1=S` [Compound 2] reads 0.52 µM.
On pro-heparanase (H60) (setting [4]), `O=C1C(=Cc2ccc(-c3cccc([N+](=O)[O-])c3)o2)SC(=S)N1CCS(=O)(=O)O` [Compound 35] returned an IC50 of 41 µM.
`N=C(N)c1ccccc1` [benzamidine]: the “% Inhibition” value in the assay with 293 cell extract was 13%.
Compound `O=C(O)CCN1C(=O)C(=Cc2ccc(-c3ccccc3[N+](=O)[O-])o2)SC1=S` [Compound 10] gave an IC50 against pro-heparanase (H60) (setting [4]) of 30 µM.
On the same count and under the same terms, the result for `O=C(O)CCCN1C(=O)C(=Cc2ccc(-c3ccccc3[N+](=O)[O-])o2)SC1=S` [Compound 3] reads 14.3 µM.
The same measure, in the same setting: the result for `O=C(O)CCN1C(=O)C(=Cc2ccc(-c3ccc(Cl)cc3Cl)o2)SC1=S` [Compound 9] reads 3 µM.
Regarding `CC(C)CC(NC(=O)C1OC1C(=O)O)C(=O)NCCCCNC(=N)N` (stereo not drawn) [Compound 127, reference compound], half-maximal inhibition against pro-heparanase (H60) (setting [3]) (IC50) was put at 32 µM.
For `O=C1C(=Cc2ccc(-c3ccc([N+](=O)[O-])cc3Cl)o2)SC(=S)N1c1ccccc1` [Compound 46], the IC50 on pro-heparanase (H60) (setting [4]) turned out to be 250 µM.
